Among the data in ChEMBL document CHEMBL1240356, “Efficacy profiles of daptomycin for treatment of invasive and noninvasive pulmonary infections with Streptococcus pneumoniae” (2010) are Activity and log10cfu values, retold here.

Structures are written as SMILES. Activity calls are given as the source filed them. No cut-off for these calls is given here.

In test [1] the test system is Streptococcus pneumoniae. The test can be described thus: Antibacterial activity against 1.5 x 10^7 CFU Streptococcus pneumoniae serotype 2 infected in therapeutic C57BL/6 mouse model assessed as increase in compound level in BALF at 6 mg/kg, ip measured on day 3 post infection. The format is functional, organism-based. On the set-up: dose 6 mg/kg.
The test system of test [2] is Streptococcus pneumoniae. The test can be described thus: Antibacterial activity against high dose 1.5 x 10^7 CFU Streptococcus pneumoniae serotype 2 infected in semitherapeutic C57BL/6 mouse model assessed as bacterial count in spleen at 6 mg/kg, ip measured after 2 days post infection. The format is functional. The following applies: route intraperitoneal.

For the compound `CCCCCCCCCC(=O)N[C@@H](Cc1c[nH]c2ccccc12)C(=O)N[C@H](CC(N)=O)C(=O)N[C@@H](CC(=O)O)C(=O)N[C@@H]1C(=O)NCC(=O)N[C@@H](CCCN)C(=O)N[C@@H](CC(=O)O)C(=O)N[C@H](C)C(=O)N[C@@H](CC(=O)O)C(=O)NCC(=O)N[C@H](CO)C(=O)N[C@@H]([C@H](C)CC(=O)O)C(=O)N[C@@H](CC(=O)c2ccccc2N)C(=O)O[C@@H]1C`, the outcome in the test on Streptococcus pneumoniae [1] was inactive. In addition, the log10cfu with Streptococcus pneumoniae [2] is 0.4.
